In patent publication EP0406111A1, “Substituted arylamines and heteroarylamines, process for their preparation and pharmaceutical composition containing them” (SOCIETE DE CONSEILS DE […] D'APPLICATIONS SCIENTIFIQUES …, priority 1989, dated 1991):
Where two headings read alike, the source gives them in different places.

Key:
[1] = target: T1, capture de (³H)dopamine par les synaptosomes striataux de rat (Rattus norvegicus, UniProt P23977); assay: biochemical
T1 construct: Les culots résultants P2 contenant les synaptosomes bruts sont ensuite utilisés sans purification supplémentaire; from tissue; host or cells: Wistar rat striatum, crude synaptosomes (P2 pellet)
T1 sequence (P23977 whole entry): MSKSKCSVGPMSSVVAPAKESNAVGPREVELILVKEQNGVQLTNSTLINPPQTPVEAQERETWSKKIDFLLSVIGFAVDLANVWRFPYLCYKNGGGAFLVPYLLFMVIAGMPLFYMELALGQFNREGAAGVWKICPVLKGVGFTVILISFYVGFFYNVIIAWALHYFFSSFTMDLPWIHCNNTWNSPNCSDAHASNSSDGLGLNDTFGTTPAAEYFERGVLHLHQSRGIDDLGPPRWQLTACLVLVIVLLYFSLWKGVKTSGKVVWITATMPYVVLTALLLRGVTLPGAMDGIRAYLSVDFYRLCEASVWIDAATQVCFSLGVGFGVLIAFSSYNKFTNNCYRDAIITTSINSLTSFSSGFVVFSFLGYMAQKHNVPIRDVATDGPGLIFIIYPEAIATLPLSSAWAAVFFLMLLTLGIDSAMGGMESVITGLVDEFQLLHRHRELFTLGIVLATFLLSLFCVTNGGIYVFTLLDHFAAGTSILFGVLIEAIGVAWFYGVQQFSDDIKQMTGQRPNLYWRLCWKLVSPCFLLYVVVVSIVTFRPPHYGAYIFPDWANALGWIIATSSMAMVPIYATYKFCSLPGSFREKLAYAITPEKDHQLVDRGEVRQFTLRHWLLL
Experimental: Ce test est pratiqué selon la méthode utilisée par Vignon et Lazdunski en opérant de la façon suivante. Des rats Wistar pesant 200-250g sont tués par dislocation cervicale. Leurs cerveaux sont rapidement prélevés et les striata sont dissé-qués sur la glace. Les striata sont ensuite homogéné-isés (10 allers-retours) avec un homogénéisant Potter dans 50 volumes de tampon Tris HCl 10 mM à pH 7,4 contenant 0,32 M de sucrose. L'homogénat est ensuite centrifugé à 1000g pendant 10min à 4°C, puis le surnageant obtenu est recentrifugé à 10000g pendant 20min à 4°C. Les culots résultants P2 contenant les synaptosomes bruts sont ensuite utilisés sans purification supplémentaire.
On ajoute alors de la dopamine tritiée ((³H)DA, Amersham) à une concentration finale de 5 nM pendant 5 min à 30°C, et on interrompt sa capture par filtration de 150 µl du milieu d'incubation sur des filtres en fibres de verre GF/B (Whatman). La radioactivité retenue par les filtres est mesurée dans un compteur à scintillation liquide (LKB)avec 3 ml d'ACS (Amersham) comme scintillant. La capture non spécifique est mesurée à 4°C dans des incubations parallèles : elle est ensuite sous-traite de la capture totale mesurée à 30°C.
Les composés à tester sont solubilisés au départ dans de l'eau à une concentration de 1mM et les autres concentrations sont obtenues par des dilutions successives de cette solution mère dans l'eau.

[2] = target: T2, complexe de recapture de la dopamine (Rattus norvegicus, UniProt P23977); assay: biochemical; format: binding; conditions: for Sélectivité IC50[^3H]TCP / IC50[^3H]BTCP: ratio of IC50 at the PCP receptor to IC50 at the dopamine reuptake complex
T2 construct: expériences de compétition sur les membranes de striatum préparées comme ci-dessus; from tissue; host or cells: rat striatal membranes
T2 sequence (P23977 whole entry, one chain of several): as the sequence (P23977 whole entry) above
Experimental: Exemple 35 : Affinité des composés pour les sites de liaison de la (³H)BTCP sur les membranes striatales de cerveaux de rats.
Les striata de cerveaux de rats rapidement disséqués dans la glace sont homogénéisés avec un ultra turax pendant 30 s (position 6) dans 50 volumes d'une solution de sucrose 0,32 M tamponnée par du Tris-HCl 10 mM à pH = 7,4. L'homogénat est centrifugé à 4°C à 1000g pendant 10 mln, puis le surnageant obtenu est centrifugé à 40000 g à 4°C pendant 30 min et les culots obtenus sont repris dans 1 ml de tampon par striatum.
L'affinité des composés pour le complexe de recapture de la dopamine est déterminée par des expériences de compétition sur les membranes de striatum préparées comme ci-dessus. Le ligand radioactif utilisé est la (³H)BTCP (Service des Molécules Marquées du CEA, Saclay France) à 55Ci/mmol.
Après 90 min à 4°C, 3 aliquots de 250 µl sont filtrés sous vide sur des filtres de fibre de verre GF/B (Whatman). La liaison non spécifique est obtenue dans des expériences parallè-les réalisées en présence de 10 µM de BTCP non marquée. Elle est soustraite de la liaison totale pour obtenir la liaison spécifique.

souris Swiss = assay: Locomotor activity of mice in the Boissier-Simon actimeter (Example 38); format: in vivo; conditions: 30 min after administration, beams crossed from 20th to 35th minute
Experimental: Exemple 38 : Mesure de l'activité locomotrice.
L'activité locomotrice de souris Swiss (mâles CD1, 25-30 g, Charles River, St Aubin lès Elbeuf, France) est mesurée dans l'actimètre Boissier-Simon (Apelex, Bagneux, France).
30 minutes après l'administration des composés à tester (10 mg/kg, i.p.), les souris sont introduites dans des cages individuelles en Plexiglass (L = 26 cm, l = 20 cm, h = 10 cm), équipées de deux cellules photoélectriques situées à 1 cm au-dessus du plancher. Chaque cellule est reliée à un compteur électromécanique. "L'activité locomotrice" correspond au nombre de rayons traversés, de la 20ème à la 35ème minute après introduction dans les cages d'actimétrie.

[3] = tested on: fixation de la (³H)BTCP dans le striatum de souris; assay: Inhibition of in vivo (3H)BTCP binding in mouse striatum (Example 40); conditions: mice, compound s.c. 60 min before i.v. (3H)BTCP, sacrifice 30 min later
Experimental: Exemple 40 : Etude de l'inhibition de la fixation "in vivo" de (³H)BTCP chez la souris.
Pour cette étude, on utilise des souris Swiss mâles pesant 20 à 25g. Les souris sont réparties par groupes et alimentées avec de la nourriture standard de laboratoire et de l'eau à volonté, en réalisant des cycles de lumière artificielle de 12h consécutives à partir de 7h du matin. Les expériences sont effectuées entre 10h et 18h. Les mesures de la fixation "in vivo" de la (³H)BTCP sont effectuées comme il a été décrit par Maurice et al, 1989, de la façon suivante.
On injecte aux souris par voie sous-cutanée le composé à tester dans 100µl de solution physiologique pour les composés n^o 4 et n^o 16 et dans 100µl d'un mélange 1:1 en volume de solution physiologique et de DMSO pour le composé n^o 26. 60 min après cette injection on leur injecte dans une veine de la queue (³H)BTCP à une dose de 5µCi dans 100µl d'un mélange de solution physiologique et d'éthanol à 5%. 30min après cette injection, on sacrifie les souris. Les striata de cerveaux sont rapidement disséqués et homogénéisés avec un ultra turrax (IKA Verk) réglage maximum pendant 20s dans 80 volumes d'un tampon Na₂HPO₄, HCl 50mM, pH=7,4 à 4°C. Deux aliquots de […] sont filtrées sous pression réduite sur des filtres GF/B (Whatman) prétraités par de la polyéthylène imine à 0,5% (Aldrich). On rince ensuite les filtres deux fois avec 5ml d'un tampon NaCl 50mM, tris-HCl 10mM, pH=7,4 à 4°C. La radioactivité fixée qui reste sur les filtres, et la radioactivité totale, obtenue à partir des deux aliquots de 200µl d'homogénats sont mesurées dans des flacons de 6ml contenant 3,5ml de ACS (Amersham) avec un spectrophotomètre à scintillation liquide Excel 1410 (LKB). La fixation non spécifique est définie comme la radioactivité présente dans chaque région après prétraitement des animaux avec de la BTCP (40mg/kg dans 100µl de solution saline), injectée par voie sous-cutanée, 60min avant l'injection de (³H)BTCP. Les résultats sont exprimés sous la forme des rapports radioactivité fixée / radioactivité libre (B/F) dans lesquels le taux de (³H)BTCP libre est estimé en soustrayant la radioactivité fixée de la radioactivité totale.

récepteur de la PCP = assay: Competition binding at the (3H)TCP sites on rat brain homogenates (Example 36); conditions: 1 nM (3H)TCP, 30 min at 25°C
Source text: Exemple 36 : Affinité des composés pour les sites de liaison de la (³H)TCP sur les homogénats de cerveaux de rats.
Dans cet essai on mesure les affinités des composés pour le récepteur de la PCP par des expériences de compétition sur des homogénats de cerveaux de rats. Le ligand radioactif utilisé est la (³H)TCP à une activité spécifique de 62 Ci/mmol (Service des Molécules Marquées, CEA Saclay France).
Les cerveaux de rats (sans le cervelet et le tronc cérébral) sont homogénéisés à l'ultra turax dans 20 volumes de tampon Hepes-Tris 50 mM, pH 7,7. Après centrifugation pendant 30 min à 15000 g le culot est repris dans le même volume de tampon et recentrifugé dans les mêmes conditions. Le culot final est repris dans du tampon Hepes-Tris 50 mM, pH 7,7 de façon à obtenir une concentration en protéine de 6 à 8 mg/ml.
Les expériences de compétition sont réalisées en incubant pendant 30 min les membranes (concentration finale en protéine : 0,6 à 0,8 mg/ml) en milieu tampon 5 mM Hepes-Tris, pH 7,7 à 25°C, en présence d'une concentration fixe de ligand tritié (1 nM)et de concentrations croissantes de composés à tester. Trois échantillons de 600 µL sont ensuite filtrés sur filtres de fibres de verre GF/B prétraités par du PEI (polyéthylénimine) à 0,1%. Les filtres sont rincés avec 3x5ml de tampon Tris-HCl 10 mM, NaCl 100 mM et la radioactivité retenue est mesurée dans un compteur à scintillation liquide. La liaison non spécifique est obtenue en présence de TCP […].

[4] = rat striatal synaptosomes, 5 nM (3H)DA, 5 min at 30°C, read-out: [3H] DA IC50
[5] = rat striatal membranes, 0,2 nM (3H)BTCP, 90 min at 4°C, read-out: [3H] BTCP IC50

| Compound | IC50 [1, 4] [nM] | IC50 [2, 5] [nM] | further results |
| --- | --- | --- | --- |
| CC1CCN(C2(c3cc4ccccc4s3)CCCCC2)CC1 [composé n^o 7, (benzo(b)thiophényl-2)-1 ((méthyl-4 pipéridino)-1)-1 cyclohexane] | 11.5 | 30.8 | – |
| CC1CC(C)CN(C2(c3cc4ccccc4o3)CCCC(C)C2)C1 (stereo not drawn) [composé n^o 14, (benzo(b)furannyl-2)-1-r-((diméthyl-3,5 pipéridino)-1)-1 t-méthyl-3 cyclohexane] | 2740 | 2210 | – |
| CC1CCCCC1(c1cc2ccccc2s1)N1CCCCC1 (stereo not drawn) [composé n^o 25, (benzo(b)thiophényl-2)-1 t-méthyl-2--r-(pipéridino-1)-1 cyclohexane] | 1280 | 1480 | – |
| C[C@H]1CCCC[C@@]1(c1cc2ccccc2s1)N1CCCCC1 (relative stereo) [composé n^o 24, (benzo(b)thiophényl--2)-1 c-méthyl-2-r-(pipéridino-1)-1 cyclohexane] | 30.6 | 14.7 | Activité locomotrice Variation (%) par rapport aux témoins (100%) pour la dose 10 mg/kg,i.p. (souris Swiss): +101±23% |
| CC1CC(C)CN([C@]2(c3cc4ccccc4s3)CC[C@H](C)CC2)C1 (relative stereo) [composé n^o 13, (benzo(b)thiophényl-2)-1-r-((diméthyl-3,5 pipéridino)-1)-1 c-méthyl-4 cyclohexane] | 425 | 635 | – |
| CC(=O)OCC1CCCN(C2(c3cc4ccccc4s3)CCCCC2)C1 (stereo not drawn) [composé n^o 15, acétate de (benzo(b)-thiophényl-2)-1 ((hydroxyméthyl-3 pipéridino)-1)-1 cyclohexane] | 44.5 | 24 | – |
| C[C@H]1CCC[C@@](c2cc3ccccc3s2)(N2CCCCC2)C1 (relative stereo) [composé n^o 22, (benzo(b)thiophényl-2)-1 c-méthyl-3-r-(piperidino-1)-1 cyclohexane] | 691 | 369 | – |
| ClCC1CCCN(C2(c3cc4ccccc4s3)CCCCC2)C1 (stereo not drawn) [composé n^o 12, (benzo(b)thiophényl-2)-1 ((chlorométhyl-3 pipéridino)-1)-1 cyclohexane] | 107 | 102 | – |
| CC1CCCC(c2cc3ccccc3s2)(N2CCCCC2)C1 (stereo not drawn) [composé n^o 23, (benzo(b)thiophényl-2)-1 t-méthyl-3-r-(pipéridino-1)-1 cyclohexane] | 606 | 590 | – |
| c1ccc2cc(C3(N4CCCCC4)CCCCC3)ccc2c1 [composé n^o 16, (naphtyl-2)-1 (pipéridi-no-1)-1 cyclohexane] | 36.3 | 14.8 | ID₅₀ (mg/kg) [3]: 2,66 mg/kg; Activité locomotrice Variation (%) par rapport aux témoins (100%) pour la dose 10 mg/kg,i.p. (souris Swiss): +269±57% |
| c1ccc2sc(C3(N4CCC5(CC4)OCCO5)CCCCC3)cc2c1 [composé n^o 5, (benzo(b)thiophényl-2)-1 ((éthylènekétal-4 pipéridino)-1)-1 cyclohexane] | 65.7 | 35.5 | IC50 (récepteur de la PCP): > 100 µM; Sélectivité IC50[^3H]TCP / IC50[^3H]BTCP [2]: >>2816 |
| ICC1CCCN(C2(c3cc4ccccc4s3)CCCCC2)C1 (stereo not drawn) [composé n^o 11] | 54.3 | 26 | IC50 (récepteur de la PCP): > 100 µM; Sélectivité IC50[^3H]TCP / IC50[^3H]BTCP [2]: >>3846 |
| c1ccc2c(C3(N4CCCCC4)CCCCC3)cccc2c1 [composé n^o 17, (naphtyl-1)-1 (pipéridino-1)-1 cyclohexane] | 3250 | 2560 | – |
| OCC1CCCN(C2(c3cc4ccccc4s3)CCCCC2)C1 (stereo not drawn) [composé n^o 9, (benzo(b)thiophényl-2)-1 ((hydroxyméthyl-3 pipéridino)-1)-1 cyclohexane] | 20.9 | 18.1 | Activité locomotrice Variation (%) par rapport aux témoins (100%) pour la dose 10 mg/kg,i.p. (souris Swiss): +416±36% |
| CCN(CC)C1(c2cc3ccccc3s2)CCCCC1 [composé n^o8, (benzo(b)thiophényl-2)-1 (diéthylamino-1)-1 cyclohexane] | – | – | IC50 [1]: 20.1 nM; Activité locomotrice Variation (%) par rapport aux témoins (100%) pour la dose 10 mg/kg,i.p. (souris Swiss): +52±21%; IC50 [2]: 16.7 nM |
